# Data from patent US20090281054A1, “COMPOSITIONS AND METHODS COMPRISING CAPURAMYCIN ANALOGUES” (priority 2008, published 2009).
# Where two headings read alike, the source gives them in different places.
# Key:
# [1] = tested on: M. smegmatis (MSMG; MC2155); experiment: MIC by microdilution method in 7H9 broth; type: cell-based; details: Mycolicibacterium smegmatis, MC2155|MC^2155; MSMG MC^2155; 72 hr; read-out: MIC
# [2] = tested on: M. kansaii (MKN; ATCC12478 & 35775); experiment: MIC by microdilution method in 7H9 broth; type: cell-based, M. kansasii; details: Mycobacterium kansasii, read-out: MIC
# [3] = biological target: translocase I (Escherichia coli, UniProt P0A6W3); experiment: IC50 against translocase I; type: biochemical
# [4] = tested on: M. abscessus (MAB; ATCC 700869); experiment: MIC by microdilution method in 7H9 broth; type: cell-based; details: Mycobacteroides abscessus, ATCC700869; MAB 700869; read-out: MIC
# [5] = tested on: M. avium complex (MAC); experiment: MIC by microdilution method in 7H9 broth; type: cell-based; details: for MIC / MIC90: Mycobacterium avium; for MIC90: value in square brackets, read-out: MIC90
# [6] = ATCC 12478 / ATCC 35775, MKN ATCC35775
# [7] = 336 h, MAC isolates, 2 wk, read-out: MIC (range)
# [8] = MAC strain NIH C1-1, read-out: MIC
# [9] = MAC strain NIH C1-2, read-out: MIC
# [10] = MAC strain NIH C1-3, read-out: MIC
# [11] = MAC strain NIH C1-4, read-out: MIC
# Sequence of translocase I (P0A6W3 whole entry): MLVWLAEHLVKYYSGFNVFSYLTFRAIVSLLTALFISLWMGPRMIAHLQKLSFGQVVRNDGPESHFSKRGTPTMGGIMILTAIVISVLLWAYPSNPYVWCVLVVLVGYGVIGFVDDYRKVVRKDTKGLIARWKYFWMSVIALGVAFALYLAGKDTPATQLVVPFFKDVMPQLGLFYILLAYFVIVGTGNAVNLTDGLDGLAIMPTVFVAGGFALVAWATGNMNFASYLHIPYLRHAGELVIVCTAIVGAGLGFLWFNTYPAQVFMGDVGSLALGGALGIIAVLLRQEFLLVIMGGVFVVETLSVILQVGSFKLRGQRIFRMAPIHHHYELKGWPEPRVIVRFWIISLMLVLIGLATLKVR
smiles,measurement,setting,value
CO[C@H]1[C@@H](O)[C@H](n2ccc(=O)[nH]c2=O)O[C@@H]1[C@@H](O[C@H]1OC(C(=O)Nc2ccc(C(F)(F)F)cc2)=C[C@H](O)[C@@H]1O)C(N)=O [RKS2033],MIC,[1],4 µg/mL
same,MIC,[2]; [6],2 µg/mL
same,MIC,[2]; MKN ATCC12478,16 µg/mL
same,IC50 against translocase I,[3],0.03 µg/mL
same,MIC,[4],2 µg/mL
same,MIC,[5]; [7],1 to 8 µg/mL
same,MIC,"[5]; MAC strain 100, read-out: MIC",2 µg/mL
same,MIC,"[5]; MAC strain 101, read-out: MIC",2 µg/mL
same,MIC,"[5]; MAC strain 104, read-out: MIC",1 µg/mL
same,MIC,"[5]; MAC strain 109, read-out: MIC",1 µg/mL
same,MIC,"[5]; MAC strain A5, read-out: MIC",2 µg/mL
same,MIC,"[5]; MAC strain JSH1, read-out: MIC",2 µg/mL
same,MIC,[5]; [8],4 µg/mL
same,MIC,[5]; [9],2 µg/mL
same,MIC,[5]; [10],8 µg/mL
same,MIC,[5]; [11],2 µg/mL
same,MIC90,[5]; MAC isolates,4 µg/mL
CO[C@H]1[C@@H](O)[C@H](n2ccc(=O)[nH]c2=O)O[C@@H]1[C@@H](O[C@H]1OC(C(=O)Nc2ccc(F)c(C(F)(F)F)c2)=C[C@H](O)[C@@H]1O)C(N)=O [RKS2137],MIC,[1],4 µg/mL
same,MIC,[2]; [6],2 µg/mL
same,MIC,[2]; MKN ATCC12478,> 32 µg/mL
same,IC50,[3],12.9 nM
same,MIC,[4],8 µg/mL
same,MIC,[5]; [7],0.5 to 16 µg/mL
same,MIC,"[5]; MAC strain 100, read-out: MIC",2 µg/mL
same,MIC,"[5]; MAC strain 101, read-out: MIC",1 µg/mL
same,MIC,"[5]; MAC strain 104, read-out: MIC",1 µg/mL
same,MIC,"[5]; MAC strain 109, read-out: MIC",0.5 µg/mL
same,MIC,"[5]; MAC strain A5, read-out: MIC",1 µg/mL
same,MIC,"[5]; MAC strain JSH1, read-out: MIC",1 µg/mL
same,MIC,[5]; [8],8 µg/mL
same,MIC,[5]; [9],2 µg/mL
same,MIC,[5]; [10],16 µg/mL
same,MIC,[5]; [11],2 µg/mL
same,MIC90,[5]; MAC isolates,8 µg/mL
CO[C@H]1[C@@H](O)[C@H](n2ccc(=O)[nH]c2=O)O[C@@H]1[C@@H](O[C@H]1OC(C(=O)Nc2cccc(F)c2)=C[C@H](O)[C@@H]1O)C(N)=O [RKS2186],MIC,[1],4 µg/mL
same,MIC,[2]; [6],4 µg/mL
same,MIC,[2]; MKN ATCC12478,> 32 µg/mL
same,IC50 against translocase I,[3],0.01 µg/mL
same,MIC,[4],16 µg/mL
same,MIC,"[5]; MAC strain 100, read-out: MIC",2 µg/mL
same,MIC,"[5]; MAC strain 101, read-out: MIC",2 µg/mL
same,MIC,"[5]; MAC strain 104, read-out: MIC",1 µg/mL
same,MIC,"[5]; MAC strain 109, read-out: MIC",1 µg/mL
same,MIC,"[5]; MAC strain A5, read-out: MIC",1 µg/mL
same,MIC,"[5]; MAC strain JSH1, read-out: MIC",4 µg/mL
same,MIC,[5]; [8],8 µg/mL
same,MIC,[5]; [9],2 µg/mL
same,MIC,[5]; [10],8 µg/mL
same,MIC,[5]; [11],2 µg/mL
same,MIC90,[5]; MAC isolates,8 µg/mL
CO[C@H]1[C@@H](O)[C@H](n2ccc(=O)[nH]c2=O)O[C@@H]1[C@@H](O[C@H]1OC(C(=O)Nc2ccc(F)c(F)c2F)=C[C@H](O)[C@@H]1O)C(N)=O [RKS2235],MIC,[1],4 µg/mL
same,MIC,[2]; [6],2 µg/mL
same,MIC,[2]; MKN ATCC12478,> 32 µg/mL
same,IC50,[3],17 nM
same,MIC,[4],16 µg/mL
same,MIC,[5]; [7],1 to 8 µg/mL
same,MIC,"[5]; MAC strain 100, read-out: MIC",2 µg/mL
same,MIC,"[5]; MAC strain 101, read-out: MIC",1 µg/mL
same,MIC,"[5]; MAC strain 104, read-out: MIC",1 µg/mL
same,MIC,"[5]; MAC strain 109, read-out: MIC",1 µg/mL
same,MIC,"[5]; MAC strain A5, read-out: MIC",1 µg/mL
same,MIC,"[5]; MAC strain JSH1, read-out: MIC",2 µg/mL
same,MIC,[5]; [8],4 µg/mL
same,MIC,[5]; [9],2 µg/mL
same,MIC,[5]; [10],8 µg/mL
same,MIC,[5]; [11],2 µg/mL
same,MIC90,[5]; MAC isolates,4 µg/mL
CO[C@H]1[C@@H](O)[C@H](n2ccc(=O)[nH]c2=O)O[C@@H]1[C@@H](O[C@H]1OC(C(=O)Nc2ccc(OC(F)(F)F)cc2)=C[C@H](O)[C@@H]1O)C(N)=O [RKS2241],MIC,[1],4 µg/mL
same,MIC,[2]; [6],2 µg/mL
same,MIC,[2]; MKN ATCC12478,32 µg/mL
same,IC50,[3],24.3 nM
same,MIC,[4],2 µg/mL
same,MIC,[5]; [7],0.5 to 16 µg/mL
same,MIC,"[5]; MAC strain 100, read-out: MIC",2 µg/mL
same,MIC,"[5]; MAC strain 101, read-out: MIC",1 µg/mL
same,MIC,"[5]; MAC strain 104, read-out: MIC",0.5 µg/mL
same,MIC,"[5]; MAC strain 109, read-out: MIC",0.5 µg/mL
same,MIC,"[5]; MAC strain A5, read-out: MIC",1 µg/mL
same,MIC,"[5]; MAC strain JSH1, read-out: MIC",2 µg/mL
same,MIC,[5]; [8],8 µg/mL
same,MIC,[5]; [9],1 µg/mL
same,MIC,[5]; [10],16 µg/mL
same,MIC,[5]; [11],2 µg/mL
same,MIC90,[5]; MAC isolates,8 µg/mL
CO[C@H]1[C@@H](O)[C@H](n2ccc(=O)[nH]c2=O)O[C@@H]1[C@@H](O[C@H]1OC(C(=O)Nc2ccc([N+](=O)[O-])cc2)=C[C@H](O)[C@@H]1O)C(N)=O [RKS2243],MIC,[1],4 µg/mL
same,MIC,[2]; [6],2 µg/mL
same,MIC,[2]; MKN ATCC12478,32 µg/mL
same,IC50,[3],6.9 nM
same,MIC,[4],> 32 µg/mL
same,MIC,[5]; [7],0.5 to 8 µg/mL
same,MIC,"[5]; MAC strain 100, read-out: MIC",1 µg/mL
same,MIC,"[5]; MAC strain 101, read-out: MIC",1 µg/mL
same,MIC,"[5]; MAC strain 104, read-out: MIC",1 µg/mL
same,MIC,"[5]; MAC strain 109, read-out: MIC",0.5 µg/mL
same,MIC,"[5]; MAC strain A5, read-out: MIC",0.5 µg/mL
same,MIC,"[5]; MAC strain JSH1, read-out: MIC",1 µg/mL
same,MIC,[5]; [8],4 µg/mL
same,MIC,[5]; [9],1 µg/mL
same,MIC,[5]; [10],8 µg/mL
same,MIC,[5]; [11],1 µg/mL
same,MIC90,[5]; MAC isolates,4 µg/mL
CO[C@H]1[C@@H](O)[C@H](n2ccc(=O)[nH]c2=O)O[C@@H]1[C@@H](O[C@H]1OC(C(=O)Nc2ccc(Br)c(C)c2)=C[C@H](O)[C@@H]1O)C(N)=O [RKS2244],MIC,[1],1 µg/mL
same,MIC,[2]; [6],2 µg/mL
same,MIC,[2]; MKN ATCC12478,> 32 µg/mL
same,IC50,[3],12.4 nM
same,MIC,[4],4 µg/mL
same,MIC,[5]; [7],0.5 to 8 µg/mL
same,MIC,"[5]; MAC strain 100, read-out: MIC",0.5 µg/mL
same,MIC,"[5]; MAC strain 101, read-out: MIC",0.25 µg/mL
same,MIC,"[5]; MAC strain 104, read-out: MIC",0.25 µg/mL
same,MIC,"[5]; MAC strain 109, read-out: MIC",0.25 µg/mL
same,MIC,"[5]; MAC strain A5, read-out: MIC",0.25 µg/mL
same,MIC,"[5]; MAC strain JSH1, read-out: MIC",0.5 µg/mL
same,MIC,[5]; [8],4 µg/mL
same,MIC,[5]; [9],0.5 µg/mL
same,MIC,[5]; [10],8 µg/mL
same,MIC,[5]; [11],1 µg/mL
same,MIC90,[5]; MAC isolates,4 µg/mL
same,MIC range,[5]; ten MAC isolates (Table 6),0.25 to 8 µg/mL
COC(=O)C1=C[C@H](O)[C@H](O)[C@@H](O[C@@H](C(N)=O)[C@H]2O[C@@H](n3ccc(=O)[nH]c3=O)[C@H](O)[C@@H]2OC)O1 [RS 120029],MIC,[1],> 32 µg/mL
same,MIC,[2]; [6],> 32 µg/mL
same,MIC,[2]; MKN ATCC12478,> 32 µg/mL
same,MIC,[4],> 32 µg/mL
same,MIC,"[5]; MAC strain 100, read-out: MIC",32 µg/mL
same,MIC,"[5]; MAC strain 101, read-out: MIC",> 32 µg/mL
same,MIC,"[5]; MAC strain 104, read-out: MIC",32 µg/mL
same,MIC,"[5]; MAC strain 109, read-out: MIC",32 µg/mL
same,MIC,"[5]; MAC strain A5, read-out: MIC",32 µg/mL
same,MIC,"[5]; MAC strain JSH1, read-out: MIC",> 32 µg/mL
same,MIC,[5]; [8],> 32 µg/mL
same,MIC,[5]; [9],> 32 µg/mL
same,MIC,[5]; [10],> 32 µg/mL
same,MIC,[5]; [11],> 32 µg/mL
same,MIC90,[5]; MAC isolates,32 µg/mL
